# From ChEMBL document CHEMBL1156375, “Isolation and structure determination of novamethymycin, a new bioactive metabolite of the methymycin biosynthetic pathway in Streptomyces venezuelae” (2001)
# System: Bacillus subtilis
# Assay: Antibacterial activity against Bacillus subtilis ATCC 6633 at 100 ug/disk after 10 hrs by disk diffusion assay
# Format: functional
# Conditions: ATCC 6633, 10 h, read-out: DIZ
row,SMILES,zone of inhibition at 100 µg/disc [mm]
1,CC[C@H]1OC(=O)[C@H](C)[C@@H](O[C@@H]2O[C@H](C)C[C@H](N(C)C)[C@H]2O)[C@@H](C)C[C@@H](C)C(=O)/C=C/[C@H]1C,16
2,CC[C@H]1OC(=O)[C@H](C)[C@@H](O[C@@H]2O[C@H](C)C[C@H](N(C)C)[C@H]2O)[C@@H](C)C[C@@H](C)C(=O)/C=C/[C@]1(C)O [METHYMYCIN],18
3,C[C@@H]1C[C@H](N(C)C)[C@@H](O)[C@H](O[C@H]2[C@@H](C)C[C@@H](C)C(=O)/C=C/[C@@H](C)[C@@H]([C@@H](C)O)OC(=O)[C@@H]2C)O1 [NEOMETHYMYCIN],20
4,C[C@@H]1C[C@H](N(C)C)[C@@H](O)[C@H](O[C@H]2[C@@H](C)C[C@@H](C)C(=O)/C=C/[C@](C)(O)[C@@H]([C@@H](C)O)OC(=O)[C@@H]2C)O1 [NOVAMETHYMYCIN],18
